Experimental data from the METLIN SMRT retention time set (Domingo-Almenara et al. 2019).

experiment: gradient 5% acetonitrile 3 min, to 50% in 2 min, to 85% in 15 min, held 3 min, 100 µL/min; conditions: column: Zorbax Extend-C18 2.1 x 50 mm; eluents: water / acetonitrile, 0.1% formic acid
Procedure, shortened: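 Pure standards were run in mixtures of ~100 molecules by HPLC coupled to a quadrupole time-of-flight mass spectrometer. The column was a Zorbax Extend-C18 (2.1 × 50 mm, 1.8 μm) at 100 μL/min, with water and acetonitrile each containing 0.1% formic acid, in positive and negative ionization mode. Dead and dwell volumes were 40 μL and 900 μL. Retention time was taken from computationally picked adduct peaks, each manually inspected, with data collected over 3 months.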

Row | RP-LC retention time [s] | SMILES
1 | 611 | Cc1ccc(NC(=O)C2(Cc3cccnc3)CCCCC(=O)N2)cc1 (centres undefined)
2 | 859 | COc1ccc(NC(=O)c2cnc3c(c2)c(=O)n(C)c(=O)n3-c2ccc(OC)cc2)cc1
3 | 728 | CC(C)C(=O)N1CCc2ccc([N+](=O)[O-])cc2C1
4 | 1170 | CCc1ccc(S(=O)(=O)c2cnc(N3CCc4ccccc4C3)nc2N)cc1
5 | 815 | O=C(Cn1nc(C2CC2)cc1C(=O)N1CCCC1)Nc1ccccc1Cl
6 | 1040 | Cc1noc(C)c1-c1ccc(S(=O)(=O)NC2CCCc3ccccc32)cc1 (centres undefined)
7 | 1140 | Cc1sc(C)c(S(=O)(=O)Nc2cccc(F)c2)c1-c1cc(C(F)(F)F)on1
8 | 644 | CCC(=O)N(C)CCc1noc(-c2ccc(C(=O)NCCOC)cc2)n1
9 | 634 | Cc1ccc(CN2CCC(CNC(=O)CSc3nc4ccccc4n(C)c3=O)C2)cc1 (centres undefined)
10 | 787 | Cc1ccc(CNC(=O)c2nc3cccnc3n(C)c2=O)cc1
11 | 666 | CCOc1ccc(NC(=O)Cn2c(CC)nc3c(c2=O)CN(Cc2ccccc2)CC3)cc1
12 | 685 | COc1ccc(C(=O)CC2(O)C(=O)Nc3ccc(C)cc32)c(OC)c1 (centres undefined)
13 | 949 | CCOC(=O)N1CCc2c(sc(NC(=O)c3cc(C)on3)c2C(=O)OC)C1
14 | 702 | O=C(NCc1ccccc1)C1CCc2sc(C(=O)N3CCCC3)cc2C1 (centres undefined)
15 | 1030 | COC(=O)c1ccc2c(=O)n(-c3ccccc3)c(N3CCSCC3)nc2c1
16 | 983 | CCCn1c(=O)sc2cc(S(=O)(=O)N3CCC(C(=O)Nc4cccc(F)c4)CC3)ccc21
17 | 976 | Cc1nc(-c2ccc(N3CCN(C(=O)c4ccc(F)c(F)c4)CC3)nc2)sc1C
18 | 897 | O=C1CCC(CCNS(=O)(=O)c2cc(Cl)ccc2Cl)CCN1CC1CC1 (centres undefined)
19 | 980 | O=C(CN1C(=O)C2CCCCN2c2ccc(S(=O)(=O)N3CCCCC3)cc21)NC1CCCC1 (centres undefined)
20 | 635 | O=C(Cc1ccccc1Cl)Nc1cc(N2CCOCC2)ncn1
21 | 611 | O=C(NC1CCN(c2cc(-c3ccc(F)cc3)[nH]n2)C1)c1ccncc1 (centres undefined)
22 | 775 | COCc1nn(CC2CC2)c2c1CN(C(=O)c1ccc(C)s1)CC2

Row | RP-LC retention time [s] | SMILES
23 | 932 | CCn1c(=O)sc2cc(S(=O)(=O)N3CCC(C(=O)Nc4cc(C)cc(C)c4)CC3)ccc21
24 | 743 | O=C(Cc1ccc(F)cc1)NC(c1ccccc1)c1nnc(N2CCOCC2)o1 (centres undefined)
25 | 690 | Cc1cc2[nH]c(=O)[nH]c2cc1S(=O)(=O)Nc1cccc(Cl)c1
26 | 767 | O=[n+]1c2c(n([O-])c3ccccc31)-c1cccc3cccc-2c13
27 | 900 | CC(C)c1ccc(NC(=O)C2CCN(S(=O)(=O)c3cn(C(C)C)cn3)CC2)cc1
28 | 1240 | CCn1nccc1-c1cccc(-c2noc(-c3ccc(F)cc3)n2)c1
29 | 959 | O=C(Cn1cc(-c2nc(-c3ccc(Cl)cc3)no2)ccc1=O)N1CCCC1
30 | 925 | CC(C)NC(=O)Cn1cccc1-c1nc(-c2ccc3c(c2)OCO3)no1
31 | 981 | CCc1ccccc1S(=O)(=O)N1CCC(C(=O)NCCc2csc(-c3cccs3)n2)CC1
32 | 977 | COc1ccc(N2CC(c3nc(-c4ccc(Br)cc4)no3)CC2=O)cc1OC (centres undefined)
33 | 581 | CC(C)Oc1ccc(CN2C[C@@H]3C(=O)N(CCCN4CCCC4=O)C(=O)[C@@H]3C2)cc1
34 | 793 | COCCOCc1nc(C2CCN(S(=O)(=O)c3c(C)noc3C)CC2)no1
35 | 593 | CCCN1CCN(C(=O)c2ccc(CS(=O)c3ccccc3Cl)o2)CC1 (centres undefined)
36 | 723 | Nc1cc(C2CCN(C(=O)Cc3c(F)cccc3Cl)CC2)no1
37 | 569 | Cc1cnc(C2CC2)n1CCNS(=O)(=O)c1ccccc1C(F)(F)F
38 | 774 | CCN1c2ccc(C)cc2C(=O)NC12CCN(C(=O)c1ccc(OC)cc1OC)CC2
39 | 897 | COc1cc(OC)c(NC(=O)Cn2nc(C(=O)N3CCCC3)c3ccccc32)cc1Cl
40 | 686 | CCN(CC)c1ncnc2c(-c3ccccc3)cn(CC(=O)NC(C)C)c12
41 | 570 | COCC(C)NS(=O)(=O)c1c(C)[nH]c(=O)[nH]c1=O (centres undefined)
42 | 587 | Cc1cc(N2CCN(C)CC2)nc2ccc(NC(=O)Nc3ccc(F)cc3)cc12
43 | 824 | CCCNC(=O)CN1c2ccc(F)cc2-c2ccccc2S1(=O)=O
44 | 800 | CCOc1ccccc1OCc1nn2c(-c3ccccn3)nnc2s1

Row | RP-LC retention time [s] | SMILES
45 | 731 | CCOC(=O)N1CCN(C(=O)Cn2ccc3ccccc32)CC1
46 | 551 | COc1ccc(CN2CCC([C@@H]3CNC[C@H]3CO)CC2)c(Cl)c1OC
47 | 932 | COC(=O)c1c(-c2ccc(C)cc2)csc1NC(=O)C1CCN(C(C)=O)CC1
48 | 736 | COc1ccc(NC(=O)Cn2nc3cc(C)nc(-c4ccccc4)n3c2=O)cc1OC
49 | 1180 | O=S(=O)(NCc1ccc(F)cc1)c1ccccc1-c1nc(-c2ccc(F)cc2)no1
50 | 996 | O=C(CN1CCCCC1c1nc(-c2cccs2)no1)NCc1cccs1 (centres undefined)
51 | 675 | Cc1ccc(CNC(=O)Cn2nc3n(c2=O)CCCCC3)cc1
52 | 565 | CC1(C)CC(O)CC(C)(C)N1CC(O)COCCOc1ccc(F)cc1 (centres undefined)
53 | 798 | COc1ccc(Cl)cc1NC(=O)C1(C)Oc2cccnc2NC1=O (centres undefined)
54 | 877 | COc1cc(OC)c(NC(=O)N2CCN(c3ccc(=O)n(-c4ccc(C)cc4)n3)CC2)cc1Cl
55 | 1070 | Cc1ccc(-c2nnc(-c3nn(C)c4c3CN(S(=O)(=O)c3ccc(Cl)cc3)CC4)o2)cc1
56 | 961 | COc1ccc([N+](=O)[O-])cc1NS(=O)(=O)c1ccc(C)cc1
57 | 864 | O=C(c1cnn2c(-c3ccc4c(c3)OCO4)ccnc12)N1CCN(c2ccccc2)CC1
58 | 611 | Cc1nn(C)cc1CN(C)C(=O)NC1CCCCC1
59 | 726 | CCC(=O)N1CCCCCCN(C)C(=O)[C@@H]2CCC[C@@H]21
60 | 1020 | CCOCc1nc(C2CCCN2S(=O)(=O)c2ccc3c(c2)CCC3)no1 (centres undefined)
61 | 791 | CCCN(CC1CCOC1)C(=O)Nc1c(C)cccc1C (centres undefined)
62 | 571 | CCOC(=O)C1=C(CN2CCN(CC)CC2)NC(=O)NC1c1ccccc1Cl (centres undefined)
63 | 832 | CCn1ccc2cc(S(=O)(=O)N3CCCN(C(=O)NCc4ccco4)CC3)ccc21
64 | 839 | CCOCCCNC(=O)C(Cc1c[nH]c2ccccc12)NC(=O)C1CCC(C)CC1 (centres undefined)
65 | 571 | CCCNC(=O)N1CCC(CCOc2ccncc2)CC1
66 | 813 | O=C(c1ccc(OCC2CCCN2C(=O)c2ccccc2F)cc1)N1CCCC1 (centres undefined)

Row | RP-LC retention time [s] | SMILES
67 | 686 | CCCn1ncc(N2CCC(C(=O)NCc3cccs3)CC2)cc1=O
68 | 607 | CCOC(=O)CCNC(=O)N1CCN(Cc2nc3cccnc3n2-c2ccc(F)cc2)CC1
69 | 614 | CCOc1ccc(CNC(=O)c2cn3c(n2)COCC3)cc1
70 | 672 | Cc1noc(C)c1S(=O)(=O)Nc1cc2c3c(c1)CC(=O)N3CCC2
71 | 1360 | O=C(Nc1cccc(Cl)c1)c1c(O)c2cccnc2n(-c2cccc(F)c2)c1=O
72 | 1090 | CCN1C(=O)C2(CCN(S(=O)(=O)c3ccc(F)c(C)c3)CC2)c2ccccc21
73 | 825 | O=C(c1[nH]c2ccccc2c1Sc1ccc(Cl)cc1)N1CCN(c2ccccn2)CC1
74 | 649 | O=C(Nc1ccc(N2CCOCC2)cc1)C1CCCN(c2ccnc(-c3ccc(F)cc3)n2)C1 (centres undefined)
75 | 956 | O=C(Cn1c(=O)cc(-c2nc(C3CC3)no2)c2ccccc21)NCc1ccccc1Cl
76 | 704 | CCc1ccccc1NC(=O)Cc1c(C)nn(-c2nc(-c3ccccc3)cs2)c1C
77 | 1110 | O=c1c2cc(-c3ccc(F)cc3)nn2cnn1Cc1nc(-c2ccccc2Cl)no1
78 | 892 | CCc1ccccc1N1C(=O)CN(S(=O)(=O)CC)CC1(C)C(=O)NCc1ccc(F)cc1 (centres undefined)
79 | 1030 | CCN1C(=O)c2cc(S(=O)(=O)Nc3ccc(C)cc3F)ccc2Oc2cccnc21
80 | 675 | O=C(NCc1ccco1)c1cc(N2C(=O)CCS2(=O)=O)ccc1Cl
81 | 587 | COCc1ncc(C)n1CCNC(=O)NC1CCCCC1
82 | 829 | O=C(C1=CN(c2cc(F)cc(F)c2)c2cc(F)ccc2S1(=O)=O)N1CCCC1
83 | 1070 | Cc1cccc(-n2c(=O)c3sccc3n(Cc3nc(-c4ccccc4C)no3)c2=O)c1
84 | 1010 | O=C(NCCCCCCCCNC(=O)c1cccc2ccccc12)c1cccc2ccccc12
85 | 560 | NC(=O)c1cc[nH]c1C1CCCN(C(=O)c2ccc(Cn3cncn3)o2)C1 (centres undefined)
86 | 610 | Cc1noc(C)c1-c1ccc(S(=O)(=O)N2CCN(C)CC2)cc1

Row | SMILES | RP-LC retention time [s]
87 | CC(n1cc(C[C@H](N)C(=O)O)c2ccccc21)n1cc(C[C@H](N)C(=O)O)c2ccccc21 | 628
88 | CCCC(=O)N1CCC2(C1)C(=O)Nc1ccc(OC)cc12 (centres undefined) | 652
89 | Cc1ncc2c(n1)C[C@@H]1CC[C@H]2N1C(=O)Nc1ccc(C)c(C)c1 | 707
